Source: PubChem BioAssay AID330 (DTP/NCI, 2004)
Several values for one entry are separate records, joined by “and”; a condition that tells them apart may be missing. Equal entries are not always repeated. Toxic doses and inconclusive results are not listed. Peptide text beside a SMILES is read from it. * marks the point of attachment. Boc = CC(C)(C)OC(=O)*

Test system: P388 leukemia ip, CD2F1 mice, survival T/C
Assay: NCI In Vivo Anticancer Drug Screen. Data for tumor model P388 Leukemia (intraperitoneal) in CD2F1 (CDF1) mice
Details: endpoint: median survival time, higher = longer survival
Outline: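 Mice carrying the transplanted tumor received test compound or vehicle. Survival was recorded in each group, and the value is the treated-group measurement divided by that of the vehicle-treated control group.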

[1] = dose: 50.0 mg/kg/injection, schedule: Q01DX005 (ip), vehicle: saline with Tween-80
[2] = dose: 200.0 mg/kg/injection, schedule: Q01DX005 (ip), vehicle: saline with Tween-80
[3] = dose: 60.0 mg/kg/injection, schedule: Q01DX005 (ip), vehicle: saline with Tween-80
[4] = dose: 120.0 mg/kg/injection, schedule: Q01DX005 (ip), vehicle: saline with Tween-80
[5] = dose: 240.0 mg/kg/injection, schedule: Q01DX005 (ip), vehicle: saline with Tween-80
[6] = dose: 15.0 mg/kg/injection, schedule: Q01DX005 (ip), vehicle: saline
[7] = dose: 30.0 mg/kg/injection, schedule: Q01DX005 (ip), vehicle: saline
[8] = dose: 60.0 mg/kg/injection, schedule: Q01DX005 (ip), vehicle: saline
[9] = dose: 100.0 mg/kg/injection, schedule: Q01DX009 (ip), vehicle: other
[10] = dose: 200.0 mg/kg/injection, schedule: Q01DX009 (ip), vehicle: other
[11] = dose: 50.0 mg/kg/injection, schedule: Q01DX005 (ip), vehicle: Klucel (hydroxypropylcellulose) (HPC)
[12] = dose: 100.0 mg/kg/injection, schedule: Q01DX005 (ip), vehicle: Klucel (hydroxypropylcellulose) (HPC)
[13] = dose: 200.0 mg/kg/injection, schedule: Q01DX005 (ip), vehicle: Klucel (hydroxypropylcellulose) (HPC)
[14] = dose: 120.0 mg/kg/injection, schedule: Q01DX005 (ip), vehicle: saline
[15] = dose: 100.0 mg/kg/injection, schedule: Q01DX009 (ip), vehicle: Klucel (hydroxypropylcellulose) (HPC)
[16] = dose: 50.0 mg/kg/injection, schedule: Q01DX009 (ip), vehicle: Klucel (hydroxypropylcellulose) (HPC)
[17] = dose: 200.0 mg/kg/injection, schedule: Q01DX009 (ip), vehicle: Klucel (hydroxypropylcellulose) (HPC)
[18] = dose: 60.0 mg/kg/injection, schedule: Q01DX005 (ip), vehicle: Klucel (hydroxypropylcellulose) (HPC)
[19] = dose: 120.0 mg/kg/injection, schedule: Q01DX005 (ip), vehicle: Klucel (hydroxypropylcellulose) (HPC)
[20] = dose: 240.0 mg/kg/injection, schedule: Q01DX005 (ip), vehicle: Klucel (hydroxypropylcellulose) (HPC)

For `Cn1c(O)c(N=NC(=S)NC(=O)C23CC4CC(CC(C4)C2)C3)c2ccccc21`, the T/C (dose: 1.56 mg/kg/injection, schedule: Q01DX005 (ip), vehicle: saline with Tween-80) was 96 % of control, the T/C (dose: 3.12 mg/kg/injection, schedule: Q01DX005 (ip), vehicle: saline with Tween-80) was 97 % of control and the T/C (dose: 6.25 mg/kg/injection, schedule: Q01DX005 (ip), vehicle: saline with Tween-80) was 103 % of control. For the same compound, the T/C [1] was 86 % of control and the T/C [2] was 89 % of control.

With `O=C(O)C#Cc1cccnc1` the T/C [3] was 106 % of control, the T/C [4] was 98 % of control and the T/C [5] was 91 % of control.

With `O=C(O)CN(CCN(CC(=O)O)CC(=O)O)CC(=O)O.[Cl][Pd][Cl]` the T/C [6] was 97 % of control, the T/C [7] was 93 % of control and the T/C [8] was 91 % of control and 95 % of control.

`COC(=O)C1C(C)(C)N=NC1(C)C` was tested, and the T/C (dose: 12.5 mg/kg/injection, schedule: Q01DX009 (ip), vehicle: other) was 113 % of control, the T/C (dose: 25.0 mg/kg/injection, schedule: Q01DX009 (ip), vehicle: other) was 115 % of control and the T/C (dose: 50.0 mg/kg/injection, schedule: Q01DX009 (ip), vehicle: other) was 105 % of control. For the same compound, the T/C [9] was 103 % of control and the T/C [10] was 108 % of control.

In the case of `CSCCC(NC(=O)C(CC(C)C)NC(=O)OC(C)(C)C)C(N)=O` (stereo not drawn) (Boc-Leu-Met-NH2; configuration not given here), the T/C [11] is reported as 98 % of control, the T/C [12] is reported as 91 % of control and the T/C [13] is reported as 95 % of control.

`CN1CCC(O)(c2ccccc2)C(Br)C1` (stereo unspecified) was tested, and the T/C [7] was 100 % of control and 106 % of control, the T/C [8] was 100 % of control and 105 % of control and 110 % of control and the T/C [14] was 100 % of control and 116 % of control.

With `CC(=O)/C(=N/O)C(C)=NCc1ccccc1` the T/C [15] was 88 % of control.

With `CCCCCCCCCC(C)(C)NP(=S)(OCC)OCC` (tested in a mixture with another compound) the T/C [16] was 105 % of control, the T/C [15] was 105 % of control and the T/C [17] was 100 % of control.

With `Cc1cc(NCCCN(C)C)c2c(ccc3c(NCCCN(C)C)cc(C)nc32)n1` the T/C (dose: 6.0 mg/kg/injection, schedule: Q01DX009 (ip), vehicle: suspension in saline) was 98 % of control, the T/C (dose: 12.0 mg/kg/injection, schedule: Q01DX009 (ip), vehicle: suspension in saline) was 104 % of control and the T/C (dose: 24.0 mg/kg/injection, schedule: Q01DX009 (ip), vehicle: saline with Tween-80) was 96 % of control. The T/C (dose: 24.0 mg/kg/injection, schedule: Q01DX009 (ip), vehicle: suspension in saline) was 115 % of control.

In the case of `O=C1CSC(=S)N1c1cccc(Cl)c1`, the T/C [16] is reported as 107 % of control and 122 % of control, the T/C [15] is reported as 118 % of control and 121 % of control and the T/C [17] is reported as 111 % of control. The T/C (dose: 400.0 mg/kg/injection, schedule: Q01DX009 (ip), vehicle: Klucel (hydroxypropylcellulose) (HPC)) was 100 % of control.

`CN(C)/C=N/NC(=O)c1ccccc1N` was tested, and the T/C [3] was 101 % of control, the T/C [4] was 101 % of control and the T/C [5] was 100 % of control.

For `CCN(CC)CC(C)(C)C(=O)/C=C/c1ccc(Cl)c(Cl)c1`, the T/C (dose: 7.5 mg/kg/injection, schedule: Q01DX005 (ip), vehicle: saline) was 102 % of control, the T/C [6] was 101 % of control and the T/C [7] was 112 % of control. For the same compound, the T/C [8] was 110 % of control, the T/C [14] was 118 % of control and the T/C (dose: 240.0 mg/kg/injection, schedule: Q01DX005 (ip), vehicle: saline) was 109 % of control.

`O=[N+]([O-])c1ccc(Sc2nc3ccccc3[nH]2)c(Cl)c1` was tested, and the T/C [11] was 99 % of control, the T/C [12] was 100 % of control and the T/C [13] was 117 % of control.

With `CN1CC(NC(=O)N(CCCl)N=O)CC2c3cccc4c3c(cn4N=O)CC21` (stereo unspecified) the T/C (dose: 50.0 mg/kg/injection, schedule: Q01DX001 (ip), vehicle: Klucel (hydroxypropylcellulose) (HPC)) was 166 % of control, the T/C (dose: 100.0 mg/kg/injection, schedule: Q01DX001 (ip), vehicle: Klucel (hydroxypropylcellulose) (HPC)) was 166 % of control and 201 % of control and the T/C (dose: 200.0 mg/kg/injection, schedule: Q01DX001 (ip), vehicle: Klucel (hydroxypropylcellulose) (HPC)) was 166 % of control.

In the case of `CCCCCCCCCCCCCCCCCSc1c(O)c(O)c2cccnc2c1O` (tested in a mixture with another compound), the T/C [18] is reported as 104 % of control and the T/C [19] is reported as 105 % of control.

For `Cc1[nH]c2ccc(CN)cc2c1CC(N)C(=O)O` (stereo unspecified), the T/C (dose: 100.0 mg/kg/injection, schedule: Q01DX001 (ip), vehicle: saline) was 110 % of control, the T/C (dose: 200.0 mg/kg/injection, schedule: Q01DX001 (ip), vehicle: saline) was 104 % of control and the T/C (dose: 400.0 mg/kg/injection, schedule: Q01DX001 (ip), vehicle: saline) was 107 % of control.

With `CC(C)[C@](O)(C(=O)OCC1CC[N+]2([O-])CC[C@@H](O)C12)[C@H](C)O` (stereo partly specified) the T/C (dose: 187.5 mg/kg/injection, schedule: Q01DX009 (ip), vehicle: saline) was 94 % of control, the T/C (dose: 375.0 mg/kg/injection, schedule: Q01DX009 (ip), vehicle: saline) was 106 % of control and the T/C (dose: 750.0 mg/kg/injection, schedule: Q01DX009 (ip), vehicle: saline) was 95 % of control. For the same compound, the T/C (dose: 1500.0 mg/kg/injection, schedule: Q01DX009 (ip), vehicle: saline) was 106 % of control.

With `CCOc1ccc2cc3c(nc2n1)[nH]c1ccccc13` the T/C (dose: 100.0 mg/kg/injection, schedule: Q04DX003 (ip), vehicle: Klucel (hydroxypropylcellulose) (HPC)) was 103 % of control, the T/C (dose: 200.0 mg/kg/injection, schedule: Q04DX003 (ip), vehicle: Klucel (hydroxypropylcellulose) (HPC)) was 107 % of control and the T/C (dose: 400.0 mg/kg/injection, schedule: Q04DX003 (ip), vehicle: Klucel (hydroxypropylcellulose) (HPC)) was 110 % of control.

In the case of `CC(C)(C)OC(=O)NC(CCCCNC(=O)C(F)(F)F)C(=O)O` (stereo unspecified), the T/C [16] is reported as 108 % of control, the T/C [15] is reported as 104 % of control and the T/C [17] is reported as 102 % of control.

For `COc1cccc2c1C(=O)c1c(O)c3c(c(O)c1C2=O)CC(O)(C(=O)CO)CC3OC1CC(N)C(O)C(C)O1.[Cl][Pt+2][Cl].[NH2-].[NH2-]` (stereo unspecified), the T/C (dose: 8.0 mg/kg/injection, schedule: Q04DX003 (ip), vehicle: DMSO) was 171 % of control and 182 % of control, the T/C (dose: 16.0 mg/kg/injection, schedule: Q04DX003 (ip), vehicle: DMSO) was 174 % of control and 193 % of control and the T/C (dose: 32.0 mg/kg/injection, schedule: Q04DX003 (ip), vehicle: DMSO) was 118 % of control. For the same compound, the T/C (dose: 64.0 mg/kg/injection, schedule: Q04DX003 (ip), vehicle: DMSO) was 100 % of control.

For `O=C(Nn1c(=O)[nH]c2ccccc2c1=O)c1ccc(Cl)cc1`, the T/C [18] was 98 % of control, the T/C [19] was 93 % of control and the T/C [20] was 90 % of control.

In the case of `O=C1C=C(Nc2ccccc2C(=O)O)C(=O)C=C1Nc1ccccc1C(=O)O`, the T/C [16] is reported as 107 % of control, the T/C [15] is reported as 110 % of control and the T/C [17] is reported as 113 % of control.

In the case of `NC(=S)Nc1cccc(C(F)(F)F)c1`, the T/C [9] is reported as 104 % of control and the T/C [10] is reported as 115 % of control.

For `O=C(CC1(O)C(=O)Nc2ccc([N+](=O)[O-])cc21)c1ccco1` (stereo unspecified), the T/C [18] was 96 % of control, the T/C [19] was 100 % of control and the T/C [20] was 99 % of control.

For `CC(=O)OC1(c2ccccc2)N=C(c2ccccc2)N=C1c1ccccc1` (stereo unspecified), the T/C [18] was 106 % of control, the T/C [19] was 110 % of control and the T/C [20] was 105 % of control.

With `CCC(c1ccccc1)c1cc(C(C)(C)C)cc(C(C)(C)C)c1O` (stereo unspecified) the T/C (dose: 50.0 mg/kg/injection, schedule: Q01DX005 (ip), vehicle: distilled water + alcohol) was 100 % of control, the T/C (dose: 100.0 mg/kg/injection, schedule: Q01DX005 (ip), vehicle: distilled water + alcohol) was 107 % of control and the T/C (dose: 200.0 mg/kg/injection, schedule: Q01DX005 (ip), vehicle: distilled water + alcohol) was 100 % of control.

For `NC(C(=O)O)C(=O)O`, the T/C [1] was 101 % of control, the T/C (dose: 100.0 mg/kg/injection, schedule: Q01DX005 (ip), vehicle: saline with Tween-80) was 100 % of control and the T/C [2] was 89 % of control.

With `S=C(c1c(Cl)cccc1Cl)N1CN(Cc2ccc(Cl)cc2)CN(Cc2ccc(Cl)cc2)C1` the T/C (dose: 50.0 mg/kg/injection, schedule: Q01DX009 (ip), vehicle: saline with Tween-80) was 99 % of control, the T/C (dose: 100.0 mg/kg/injection, schedule: Q01DX009 (ip), vehicle: saline with Tween-80) was 96 % of control and the T/C (dose: 200.0 mg/kg/injection, schedule: Q01DX009 (ip), vehicle: saline with Tween-80) was 108 % of control.
